Experimental data taken from US8053197B2, “Methods for detecting and treating autoimmune disorders” (Oregon Health & Science University, priority 2004, dated 2011).

How the values were obtained:
EAE = EAE induced with MOG-35-55 peptide/CFA/pertussis toxin, clinical score; format: in vivo, C57BL/6 mice
Excerpt: Female C57BL/6 mice were pretreated with 17β-estradiol (E2) or placebo for 7 days prior to challenge with MOG-35-55 peptide/CFA/PM to induce EAE. At the peak of EAE in the placebo group (day 15 after induction), cells were harvested from both the placebo-treated mice (score=4.5-5) and E2-treated mice (score=0). Cell mixtures were combined within each treatment group. Five×10^4 CD4+CD25− responder cells in combination with 5×10^4 APC and the indicated ratios of CD4+CD25+ suppressor cells were stimulated in triplicate wells with anti-CD3 mAb for 3 days, with addition of [^3H]-thymidine for the last 12 h of culture. Representative data from two independent experiments are shown.
(§1) For E2 therapy, a 3 mm pellet containing 2.5 mg or 15 mg (as indicated) 17β-estradiol (Innovative Research of America, Sarasota, Fla.) was implanted s.c. (dorsally) 7 days prior to immunization (EAE) or 14 days prior to analysis of naïve mice. These pellets are designed to release their contents at a constant rate over 60 days. Control animals were implanted with pellets containing saline. Serum levels of E2 were monitored by RIA.
Briefly, mice were immunized s.c. in the flanks with 200 μg MOG-35-55 peptide in CFA (Difco Laboratories, Detroit, Mich.). Mice were also given pertussis toxin i.p on days 0 (75 ng) and 2 (200 ng).

Foxp3 = Foxp3 expression in CD4+ T cells of E2-treated, MOG-35-55 immunized mice at peak of EAE; format: in vivo, C57BL/6 mice; details: peak of disease
Description: FIG. 2 is a graph illustrating real-time RT-PCR analysis of Foxp3. C57BL/6 and Esr^−/− mice were implanted with placebo or 2.5 mg E2 pellets and immunized 1 week later with 200 μg MOG-35-55 peptide in CFA with pertussis toxin on days 0 and +2. At the peak of clinical disease, mice were sacrificed and splenocytes sorted for CD4+ cells. cDNA was prepared and analyzed by real-time PCR to determine Foxp3 mRNA levels. Data are presented as Foxp3 relative to housekeeping gene L32. Error bars are standard deviation of triplicate samples.
Control lane is lysate of 293T cells transfected with Foxp3 cDNA. The CD25+ fraction (among CD4+) of each sample is noted above bars.
Female naïve or syngeneic pregnant (19 days) C57BL/6 mice were purchased from Jackson Laboratory (Bar Harbor, Me.). Estrogen receptor alpha knockout (Esrl^−/−) mice were purchased from Taconic (Germantown, N.Y.). Most experiments represent cells pooled from at least five mice per experimental condition.
as §1, with “RIA. […]” for “RIA.”
For real-time RT-PCR analysis, total RNA was prepared using the Total RNeasy kit (Qiagen, Germantown, Md.) and cDNA was prepared using random hexamer primers (Invitrogen, Grand Island, N.Y.). Foxp3 message expression was quantified using the ABI 7000 Real-Time PCR System (Applied Biosystems, Foster City, Calif.). Amplification was performed in a total volume of 25 μl for 40 cycles and products were detected using SYBR Green I dye (Molecular Probes, Eugene, Oreg.). Samples were run in triplicate and relative expression level was determined by normalization to L32 with results presented as relative expression (RE) units. […]

C[C@]12CC[C@@H]3c4ccc(O)cc4CC[C@H]3[C@@H]1CC[C@@H]2O [E2, 17β-estradiol]
EAE score (EAE; E2 pretreatment 7 days before challenge, day 15 after induction (placebo 4.5-5)): 0
protection from EAE (EAE; wild-type C57BL/6 mice, therapeutic doses of E2): protected from EAE
Foxp3 mRNA levels in CD4+ T cells increased (Foxp3; Esr1−/− mice lacking estrogen receptor-α, MOG-35-55 immunized): not
FoxP3 protein expression and CD25+ number in E2-treated mice, Esr1−/− versus wild-type (Foxp3; western blot and flow cytometry): substantially lower
Foxp3 mRNA levels in CD4+ T cells (Foxp3; wild-type C57BL/6 mice, MOG-35-55 immunized, versus placebo): significantly increased
